Laboratory results reported in PubChem BioAssay (NCI).
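A five-concentration, 48-hour dose response in 96-well plates underlies each endpoint, interpolated linearly between surrounding concentrations. Definition used: TGI = concentration required for complete inhibition of growth.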

Experiments:
Experiment in all cases: DTP human tumour cell line panel, 48 h
[1] = test system: 786-0 renal
[2] = test system: A498 renal
[3] = test system: A549 NSCLC
[4] = test system: ACHN renal
[5] = test system: BT-549 breast
[6] = test system: CAKI-1 renal
[7] = test system: CCRF-CEM leukemia
[8] = test system: COLO 205 colon
[9] = test system: DU-145 prostate
[10] = test system: EKVX NSCLC
[11] = test system: HCC-2998 colon
[12] = test system: HCT-116 colon
[13] = test system: HCT-15 colon
[14] = test system: HL-60(TB) leukemia
[15] = test system: HOP-62 NSCLC
[16] = test system: HOP-92 NSCLC
[17] = test system: HS 578T breast
[18] = test system: HT29 colon
[19] = test system: IGROV1 ovarian
[20] = test system: KM12 colon
[21] = test system: LOX IMVI melanoma
[22] = test system: M14 melanoma
[23] = test system: MALME-3M melanoma
[24] = test system: MCF7 breast
[25] = test system: MDA-MB-231 breast
[26] = test system: MDA-MB-435
[27] = test system: MDA-N
[28] = test system: NCI-H226 lung
[29] = test system: NCI-H23 lung
[30] = test system: NCI-H460 lung
[31] = test system: NCI-H522 lung
[32] = test system: NCI/ADR-RES ovarian
[33] = test system: OVCAR-3 ovarian
[34] = test system: OVCAR-4 ovarian
[35] = test system: OVCAR-5 ovarian
[36] = test system: OVCAR-8 ovarian
[37] = test system: PC-3 prostate
[38] = test system: RXF 393 renal
[39] = test system: SF-268 CNS
[40] = test system: SF-295 CNS
[41] = test system: SK-MEL-2 melanoma
[42] = test system: SK-MEL-28 melanoma
[43] = test system: SK-MEL-5 melanoma
[44] = test system: SK-OV-3 ovarian
[45] = test system: SN12C renal
[46] = test system: SNB-19 CNS
[47] = test system: SW-620 colon
[48] = test system: TK-10 renal
[49] = test system: U251 CNS
[50] = test system: UACC-257 melanoma
[51] = test system: UACC-62 melanoma
[52] = test system: UO-31 renal
[53] = test system: K-562 leukemia
[54] = test system: MOLT-4 leukemia
[55] = test system: RPMI-8226 leukemia
[56] = test system: SF-539 CNS
[57] = test system: SNB-75 CNS
[58] = test system: SR leukemia
[59] = test system: T-47D breast

`c1ccc(CCNc2ccccn2)nc1` was tested, and the TGI [1] was greater than 100 µM, the TGI [2] was greater than 100 µM and the TGI [3] was greater than 100 µM. For the same compound, the TGI [4] was greater than 100 µM, the TGI [5] was greater than 100 µM and the TGI [6] was greater than 100 µM. The TGI [7] was greater than 100 µM, the TGI [8] was greater than 100 µM and the TGI [9] was greater than 100 µM. For the same compound, the TGI [10] was greater than 100 µM, the TGI [11] was greater than 100 µM and the TGI [12] was greater than 100 µM. It also gave a TGI [13] greater than 100 µM, a TGI [14] greater than 100 µM and a TGI [15] greater than 100 µM. The TGI [16] was greater than 100 µM, the TGI [17] was greater than 100 µM and the TGI [18] was greater than 100 µM. It also gave a TGI [19] greater than 100 µM, a TGI [20] greater than 100 µM and a TGI [21] greater than 100 µM. The TGI [22] was greater than 100 µM, the TGI [23] was greater than 100 µM and the TGI [24] was greater than 100 µM. The TGI [25] was greater than 100 µM, the TGI [26] was greater than 100 µM and the TGI [27] was greater than 100 µM. The TGI [28] was greater than 100 µM, the TGI [29] was greater than 100 µM and the TGI [30] was greater than 100 µM. It also gave a TGI [31] greater than 100 µM, a TGI [32] greater than 100 µM and a TGI [33] greater than 100 µM. The TGI [34] was greater than 100 µM, the TGI [35] was greater than 100 µM and the TGI [36] was greater than 100 µM. The TGI [37] was greater than 100 µM, the TGI [38] was greater than 100 µM and the TGI [39] was greater than 100 µM. The TGI [40] was greater than 100 µM, the TGI [41] was greater than 100 µM and the TGI [42] was greater than 100 µM. The TGI [43] was greater than 100 µM, the TGI [44] was greater than 100 µM and the TGI [45] was greater than 100 µM. For the same compound, the TGI [46] was greater than 100 µM, the TGI [47] was greater than 100 µM and the TGI [48] was greater than 100 µM. It also gave a TGI [49] greater than 100 µM, a TGI [50] greater than 100 µM and a TGI [51] greater than 100 µM. It also gave a TGI [52] greater than 100 µM.
Work on `Cc1[nH]nc(C(F)(F)F)c1N=NN1CCOCC1` yielded a TGI [2] of 32.6 µM, a TGI [3] of 24.7 µM and a TGI [4] of 17.7 µM. The TGI [5] was 25.1 µM, the TGI [6] was 4.67 µM and the TGI [7] was 10.8 µM. The TGI [8] was 11.9 µM, the TGI [9] was 13.4 µM and the TGI [10] was 21.3 µM. The TGI [11] was 6.11 µM, the TGI [12] was 6.12 µM and the TGI [13] was 25.8 µM. For the same compound, the TGI [14] was 6.18 µM, the TGI [15] was 28.5 µM and the TGI [16] was 8.32 µM. For the same compound, the TGI [17] was 40.5 µM, the TGI [18] was 16.8 µM and the TGI [19] was 22.6 µM. For the same compound, the TGI [53] was 2400 nM, the TGI [20] was 21.9 µM and the TGI [21] was 18.3 µM. The TGI [22] was 32.8 µM, the TGI [23] was 31.3 µM and the TGI [24] was 21 µM. For the same compound, the TGI [25] was 27.1 µM, the TGI [26] was 26 µM and the TGI [54] was 5.32 µM. It also gave a TGI [28] of 30.4 µM, a TGI [29] of 15.5 µM and a TGI [30] of 17.1 µM. For the same compound, the TGI [31] was 8.7 µM, the TGI [32] was 22.1 µM and the TGI [33] was 23 µM. It also gave a TGI [34] of 15.1 µM, a TGI [35] of 41.7 µM and a TGI [36] of 13.7 µM. It also gave a TGI [37] of 24.8 µM, a TGI [55] of 5.06 µM and a TGI [38] of 25.1 µM. For the same compound, the TGI [39] was 26.8 µM, the TGI [40] was 28.1 µM and the TGI [56] was 28.6 µM. It also gave a TGI [41] of 27.1 µM, a TGI [42] of 32.7 µM and a TGI [43] of 12.8 µM. The TGI [44] was 31.7 µM, the TGI [45] was 30.8 µM and the TGI [46] was 30.4 µM. For the same compound, the TGI [57] was 26.7 µM, the TGI [58] was 2770 nM and the TGI [47] was 5.64 µM. The TGI [59] was greater than 42.8 µM, the TGI [48] was 26.7 µM and the TGI [49] was 27.7 µM. The TGI [50] was 24.4 µM, the TGI [51] was 23.5 µM and the TGI [52] was 7.04 µM.
